Laboratory results taken from patent US11192878B2, “Piperidine-2,6-dione derivative and use thereof” (KOREA RESEARCH INSTITUTE OF CHEMICAL TECHNOLOGY, priority 2017, dated 2021).
Structures can show the parent of a compound that is named as a salt.

Tested on: NCI-H929 cells
Experiment: Cytotoxicity experiment (WST-1)
Assay type: cell-based
Details: Homo sapiens, 72 hours, WST-1, absorbance 450 nm
Method: In order to confirm the effect of the compound of the present disclosure on cancer cells and normal cells, the cytotoxicity experiment was conducted as follows.
After seeding NCI-H929 cells on a 96-well plate so as to be 10,000 cells per each well, each compound was treated in a predetermined concentration. In 72 hours, WST-1 reagent was added, and in 1 hour, the absorbance was measured at 450 nm using spectramax spectrophotometer to measure the degree of cell death.

Row | SMILES | IC50
1 | Nc1cccc2nnn(C3CCC(=O)NC3=O)c(=O)c12 (stereo not drawn) [Chemical formula 7, 3-(5-amino-4-oxobenzo[d][1,2,3]triazin-3(4H)-yl)piperidine-2,6-dione] | < 1 µM
2 | O=C1CCC(n2nnc3cccc(F)c3c2=O)C(=O)N1 (stereo not drawn) [Chemical formula 8, 3-(5-fluoro-4-oxobenzo[d][1,2,3]triazin-3(4H)-yl)piperidine-2,6-dione] | 1 to 10 µM
3 | O=C1CCC(n2nnc3cccc([N+](=O)[O-])c3c2=O)C(=O)N1 (stereo not drawn) [Chemical formula 9, 3-(5-nitro-4-oxobenzo[d][1,2,3]triazin-3(4H)-yl)piperidine-2,6-dione] | 10 to 50 µM
4 | Cc1cccc2nnn(C3CCC(=O)NC3=O)c(=O)c12 (stereo not drawn) [Chemical formula 11, 3-(5-methyl-4-oxobenzo[d][1,2,3]triazin-3(4H)-yl)piperidine-2,6-dione] | 1 to 10 µM
5 | O=C1CCC(n2nnc3ccc(Cl)cc3c2=O)C(=O)N1 (stereo not drawn) [Chemical formula 12, 3-(6-chloro-4-oxobenzo[d][1,2,3]triazin-3(4H)-yl)piperidine-2,6-dione] | 10 to 50 µM
6 | COc1ccc2nnn(C3CCC(=O)NC3=O)c(=O)c2c1 (stereo not drawn) [Chemical formula 19, 3-(6-methoxy-4-oxobenzo[d][1,2,3]triazin-3(4H)-yl)piperidine-2,6-dione] | 10 to 50 µM
7 | CC(=O)Nc1cccc2nnn(C3CCC(=O)NC3=O)c(=O)c12 (stereo not drawn) [Chemical formula 20, N-(3-(2,6-dioxopiperidin-3-yl)-4-oxo-3,4-dihydrobenzo[d][1,2,3]triazin-5-yl)acetamide] | 10 to 50 µM
8 | O=C1CCC(n2nnc3c([N+](=O)[O-])cccc3c2=O)C(=O)N1 (stereo not drawn) [Chemical formula 21, 3-(8-nitro-4-oxobenzo[d][1,2,3]triazin-3(4H)-yl)piperidine-2,6-dione] | 10 to 50 µM
9 | CC(=O)Nc1ccc2nnn(C3CCC(=O)NC3=O)c(=O)c2c1 (stereo not drawn) [Chemical formula 23, N-(3-(2,6-dioxopiperidin-3-yl)-4-oxo-3,4-dihydrobenzo[d][1,2,3]triazin-6-yl)acetamide] | 10 to 50 µM
10 | Nc1cccc2c(=O)n(C3CCC(=O)NC3=O)ccc12 (stereo not drawn) [Chemical formula 24, 3-(5-amino-1-oxoisoquinolin-2(1H)-yl)piperidine-2,6-dione] | 10 to 50 µM
11 | O=C1CCC(n2nnc3ccccc3c2=O)C(=O)N1 (stereo not drawn) [Chemical formula 25, 3-(4-oxobenzo[d][1,2,3]triazin-3(4H)-yl)piperidine-2,6-dione] | 1 to 10 µM
12 | O=C1CCC(n2nnc3cc([N+](=O)[O-])ccc3c2=O)C(=O)N1 (stereo not drawn) [Chemical formula 26, 3-(7-nitro-4-oxobenzo[d][1,2,3]triazin-3(4H)-yl)piperidine-2,6-dione] | 10 to 50 µM
13 | O=C1CCC(n2nnc3ccc([N+](=O)[O-])cc3c2=O)C(=O)N1 (stereo not drawn) [Chemical formula 27, 3-(6-nitro-4-oxobenzo[d][1,2,3]triazin-3(4H)-yl)piperidine-2,6-dione] | 10 to 50 µM
14 | O=C1CCC(n2nnc3cccc(C(=O)O)c3c2=O)C(=O)N1 (stereo not drawn) [Chemical formula 29, 3-(2,6-dioxopiperidin-3-yl)-4-oxo-3,4-dihydrobenzo[d][1,2,3]triazin-5-carboxylic acid] | 10 to 50 µM
15 | CC1(n2nnc3cccc(N)c3c2=O)CCC(=O)NC1=O (stereo not drawn) [Chemical formula 30, 3-(5-amino-4-oxobenzo[d][1,2,3]triazin-3(4H)-yl)-3-methylpiperidine-2,6-dione] | 10 to 50 µM
16 | Nc1cccc2ccn(C3CCC(=O)NC3=O)c(=O)c12 (stereo not drawn) [Chemical formula 31, 3-(8-amino-1-oxoisoquinolin-2(1H)-yl)piperidine-2,6-dione] | 10 to 50 µM
17 | Cc1ccc(NC(=O)NCc2ccc3c(=O)n(C4CCC(=O)NC4=O)nnc3c2)cc1Cl (stereo not drawn) [Chemical formula 37, 1-(3-chloro-4-methylphenyl)-3-((3-(2,6-dioxopiperidin-3-yl)-4-oxo-3,4-dihydrobenzo[d][1,2,3]triazin-7-yl)methyl)urea] | < 1 µM
18 | Cc1ccc(NC(=O)NCc2ccc3nnn(C4CCC(=O)NC4=O)c(=O)c3c2)cc1Cl (stereo not drawn) [Chemical formula 38, 1-(3-chloro-4-methylphenyl)-3-((3-(2,6-dioxopiperidin-3-yl)-4-oxo-3,4-dihydrobenzo[d][1,2,3]triazin-6-yl)methyl)urea] | < 1 µM
19 | O=C1CCC(n2nnc3cccc(NC(=O)c4ccccc4)c3c2=O)C(=O)N1 (stereo not drawn) [Chemical formula 56, N-(3-(2,6-dioxopiperidin-3-yl)-4-oxo-3,4-dihydrobenzo[d][1,2,3]triazin-5-yl)benzamide] | 10 to 50 µM
20 | O=C1CCC(n2nnc3cccc(O)c3c2=O)C(=O)N1 (stereo not drawn) [Chemical formula 57, 3-(5-hydroxy-4-oxobenzo[d][1,2,3]triazin-3(4H)-yl)piperidine-2,6-dione] | < 1 µM
21 | CC(C)(C)C(=O)OCN1C(=O)CCC(n2nnc3cccc(N)c3c2=O)C1=O (stereo not drawn) [Chemical formula 58, (3-(5-amino-4-oxobenzo[d][1,2,3]triazin-3(4H)-yl)-2,6-dioxopiperidin-1-yl)methyl pivalate] | < 1 µM
22 | Nc1cccc2nnn(C3CCC(=O)N(COC(=O)c4ccccc4)C3=O)c(=O)c12 (stereo not drawn) [Chemical formula 59, (3-(5-amino-4-oxobenzo[d][1,2,3]triazin-3(4H)-yl)-2,6-dioxopiperidin-1-yl)methyl benzoate] | < 1 µM
23 | Nc1cccc2nnn(C3CCC(=O)N(COC(=O)C4CCNCC4)C3=O)c(=O)c12 (stereo not drawn) [Chemical formula 60, (3-(5-amino-4-oxobenzo[d][1,2,3]triazin-3(4H)-yl)-2,6-dioxopiperidin-1-yl)methyl piperidine-4-carboxylate hydrochloride] | < 1 µM
24 | Nc1cccc2nnn(C3CCC(=O)N(COC(=O)[C@H]4CCCN4)C3=O)c(=O)c12 (stereo partly drawn) [Chemical formula 61, (3-(5-amino-4-oxobenzo[d][1,2,3]triazin-3(4H)-yl)-2,6-dioxopiperidin-1-yl)methyl D-prolinate hydrochloride] | < 1 µM
25 | CC[C@H](C)[C@H](N)C(=O)OCN1C(=O)CCC(n2nnc3cccc(N)c3c2=O)C1=O (stereo partly drawn) [Chemical formula 62, (3-(5-amino-4-oxobenzo[d][1,2,3]triazin-3(4H)-yl)-2,6-dioxopiperidin-1-yl)methyl L-isoleucinate hydrochloride] | < 1 µM
26 | CCCC(=O)OCN1C(=O)CCC(n2nnc3cccc(N)c3c2=O)C1=O (stereo not drawn) [Chemical formula 63, (3-(5-amino-4-oxobenzo[d][1,2,3]triazin-3(4H)-yl)-2,6-dioxopiperidin-1-yl)methyl butyrate] | < 1 µM
27 | Nc1ccc2nnn(C3CCC(=O)NC3=O)c(=O)c2c1 (stereo not drawn) [Chemical formula 65, 3-(6-amino-4-oxobenzo[d][1,2,3]triazin-3(4H)-yl)piperidine-2,6-dione] | 10 to 50 µM
